What was measured:
[1] = test system: Endocrine-resistant MCF7-ARO cells; assay: 4 day CellTiter-Glo assay in endocrine resistant cells; format: cell-based, human; details: FIG. 40A
Excerpt: Endocrine-resistant MCF7-ARO cells were obtained by letrozole dose escalation over about 4 months.

PI3K alpha H1047R mutant = PI3K alpha H1047R mutant (Homo sapiens, UniProt P42336, H1047R); details: relative to PI3K alpha; Folkes et al (2008); cited from earlier work
[2] = test system: MCF-7 neo/HER2 breast cancer tumor xenografts; assay: In vivo mouse tumor xenograft efficacy; set-up: species or system mice
Method: (§1) Xenografts were initiated with cancer cells. […] Volume was calculated using the formula: […]

cancer cell lines = assay: cell proliferation assays across cancer cell lines (FIGS. 1-3, 12); format: cell-based; details: EC50, cell proliferation assays
Excerpt: EC50 values were established for the experiments.

[3] = test system: HCC1954.x1 breast tumor xenografts; assay: In vivo mouse tumor xenograft efficacy; set-up: species or system mice; details: 150 mg/kg; QD x 21; PO
Method: The term uL means microliter.
as §1

PI3K alpha E545K mutant = PI3K alpha E545K mutant (Homo sapiens, UniProt P42336, E545K); details: relative to PI3K alpha; Folkes et al (2008); cited from earlier work
Sequence of PI3K alpha E545K mutant (P42336 whole entry E545K): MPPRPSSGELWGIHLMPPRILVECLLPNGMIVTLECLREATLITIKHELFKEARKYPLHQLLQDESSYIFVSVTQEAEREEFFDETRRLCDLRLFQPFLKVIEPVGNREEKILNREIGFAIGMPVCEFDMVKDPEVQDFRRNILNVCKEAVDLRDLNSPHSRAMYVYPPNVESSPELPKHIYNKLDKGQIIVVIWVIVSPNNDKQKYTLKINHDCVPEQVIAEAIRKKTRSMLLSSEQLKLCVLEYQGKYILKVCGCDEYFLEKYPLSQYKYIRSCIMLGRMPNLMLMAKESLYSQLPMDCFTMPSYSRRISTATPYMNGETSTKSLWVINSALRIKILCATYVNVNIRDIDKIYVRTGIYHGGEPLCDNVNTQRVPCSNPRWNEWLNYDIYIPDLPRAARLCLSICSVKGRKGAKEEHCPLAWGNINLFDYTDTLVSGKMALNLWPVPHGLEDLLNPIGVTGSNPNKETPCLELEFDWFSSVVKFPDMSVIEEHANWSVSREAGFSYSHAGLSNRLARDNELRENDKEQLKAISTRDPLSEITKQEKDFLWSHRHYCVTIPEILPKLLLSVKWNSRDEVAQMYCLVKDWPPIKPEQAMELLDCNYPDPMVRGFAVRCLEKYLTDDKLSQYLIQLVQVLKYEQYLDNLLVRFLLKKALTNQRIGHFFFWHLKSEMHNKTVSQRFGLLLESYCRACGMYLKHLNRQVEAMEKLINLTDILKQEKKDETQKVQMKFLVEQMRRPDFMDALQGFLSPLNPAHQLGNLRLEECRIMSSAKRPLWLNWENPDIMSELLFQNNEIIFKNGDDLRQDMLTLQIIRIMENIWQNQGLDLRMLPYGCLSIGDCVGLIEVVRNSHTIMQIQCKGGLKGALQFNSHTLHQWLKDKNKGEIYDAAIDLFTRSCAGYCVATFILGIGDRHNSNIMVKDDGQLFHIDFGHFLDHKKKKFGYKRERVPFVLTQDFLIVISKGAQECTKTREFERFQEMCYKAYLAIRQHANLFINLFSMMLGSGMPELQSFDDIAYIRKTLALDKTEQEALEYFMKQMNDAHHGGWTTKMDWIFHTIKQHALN
Sequence of PI3K alpha E545K mutant (P27986 whole entry partner): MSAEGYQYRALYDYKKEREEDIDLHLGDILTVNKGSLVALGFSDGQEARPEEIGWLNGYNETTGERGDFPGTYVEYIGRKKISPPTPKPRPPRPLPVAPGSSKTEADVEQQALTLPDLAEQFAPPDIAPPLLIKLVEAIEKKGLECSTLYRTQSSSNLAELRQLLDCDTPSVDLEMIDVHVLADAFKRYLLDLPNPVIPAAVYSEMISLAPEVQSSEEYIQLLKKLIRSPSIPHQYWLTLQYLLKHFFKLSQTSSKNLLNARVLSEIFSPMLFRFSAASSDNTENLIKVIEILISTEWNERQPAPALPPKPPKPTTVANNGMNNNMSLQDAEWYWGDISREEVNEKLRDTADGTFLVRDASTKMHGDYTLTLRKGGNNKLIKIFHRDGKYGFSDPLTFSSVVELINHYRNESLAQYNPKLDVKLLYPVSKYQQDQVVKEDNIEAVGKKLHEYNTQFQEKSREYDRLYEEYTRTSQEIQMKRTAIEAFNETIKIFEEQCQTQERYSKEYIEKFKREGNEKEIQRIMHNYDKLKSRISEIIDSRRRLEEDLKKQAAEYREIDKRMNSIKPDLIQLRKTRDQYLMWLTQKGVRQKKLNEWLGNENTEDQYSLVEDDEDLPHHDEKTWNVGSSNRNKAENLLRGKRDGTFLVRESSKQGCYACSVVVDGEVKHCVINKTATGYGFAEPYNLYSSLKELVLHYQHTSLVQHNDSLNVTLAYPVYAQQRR

MCF7-ARO cells = assay: modulation of PI3K pathway and ER pathway markers and apoptosis induction; format: cell-based, human; details: Twenty-four hour treatment
Excerpt: Aromatase-expressing MCF7 cells convert androstenedione to estrogen in culture.

Sequence of PI3K alpha H1047R mutant (P42336 whole entry H1047R): as the sequence (P42336 whole entry E545K) above, with K545E, H1047R counted along it
Sequence of PI3K alpha H1047R mutant (P27986 whole entry partner): as the sequence (P27986 whole entry partner) above

CC/C(=C(\c1ccccc1)c1ccc(OCCN(C)C)cc1)c1ccccc1 [tamoxifen, (Z)-2-[4-(1,2-diphenylbut-1-enyl)phenoxy]-N,N-dimethylethanamine]
resistance of endocrine-resistant cells [1]: resistant

C[C@]12CC[C@@H]3c4ccc(O)cc4C[C@@H](CCCCCCCCC[S+]([O-])CCCC(F)(F)C(F)(F)F)[C@H]3[C@@H]1CC[C@@H]2O (some centres unmarked) [fulvestrant, (7a,1713)-7-{9-[(4,4,5,5,5-pentafluoropentyl)sulfinyl]nonyl}estra-1,3,5(10)-triene-3,17-diol]
resistance of endocrine-resistant cells [1]: resistant

CS(=O)(=O)N1CCN(Cc2cc3nc(-c4cccc5[nH]ncc45)nc(N4CCOCC4)c3s2)CC1 [GDC-0941, 4-(2-(1H-indazol-4-yl)-6-((4-(methylsulfonyl)piperazin-1-yl)methyl)thieno[3,2-d]pyrimidin-4-yl)morpholine, reference compound]
PI3K alpha H1047R mutant (PI3K alpha H1047R mutant): 1x
% TGI@ day 21 ([2]; QD, 150 mg/kg): 80%
sensitivity of cancer cell lines with HER2 amplification versus those without HER2 amplification (cancer cell lines): 9 times
% TGI@ day 21 [3]: 90%
PI3K alpha E545K mutant (PI3K alpha E545K mutant): 1x

C=C1C[C@@H]2[C@H](CC[C@]3(C)C(=O)CC[C@@H]23)[C@@]2(C)C=CC(=O)C=C12 [exemestane]
resistance of endocrine-resistant cells [1]: resistant

N#Cc1ccc(C(c2ccc(C#N)cc2)n2cncn2)cc1 [letrozole, 4,4′-((1H-1,2,4-triazol-1-yl)methylene)dibenzonitrile]
PI3K and ER pathway markers (MCF7-ARO cells): increases HER2 and pAkt, but decreases pmTOR and pp 70S6K
resistance of endocrine-resistant cells [1]: resistant

CC(=O)O[C@@]12CO[C@@H]1C[C@H](O)[C@@]1(C)C(=O)[C@H](O)C3=C(C)[C@@H](OC(=O)[C@H](O)[C@@H](NC(=O)OC(C)(C)C)c4ccccc4)C[C@@](O)([C@@H](OC(=O)c4ccccc4)[C@H]21)C3(C)C [Docetaxel, (2R,3S)—N-carboxy-3-phenylisoserine, N-tert-butyl ester, 13-ester with 5,20-epoxy-1,2,4,7,10,13-hexahydroxytax-11-en-9-one 4-acetate 2-benzoate, trihydrate, reference compound]
% TGI@ day 21 ([2]; QW, 7.5 mg/kg): 69%
